How the values were obtained:
HeLa cells [1] = assay: Cytoprotection from ER stress (tunicamycin), cell viability by WST-8; format: cell-based; parameters: key to Cytoprotection from ER stress compared to guanabenz: +: lower cytoprotective effect compared to Guanabenz; ++: similar cytoprotective effect compared to Guanabenz; +++: higher cytoprotective effect compared to Guanabenz; conditions: HeLa cells, 6 hour exposure to tunicamycin 5 μg/mL, compounds 0.5-10 μM, viability 48 h or 72 h
Description: Cytoprotection against ER stress can be measured by a suitable assay. For example, cytoprotection can be measured in HeLa cells in which ER stress is elicited by the addition of media containing tunicamycin, a mixture of homologous nucleoside antibiotics that inhibits the UDP-HexNAc: polyprenol-P HexNAc-1-P family of enzymes and is used to induce unfolded protein response. Cell viability can be detected in the presence and absence of inhibitor compounds after a set period of time, by measuring the reduction of WST-8 into formazan using a standard cell viability kit (such as Cell Viability Counting Kit-8 from Dojindo). Cytoprotection from ER stress is measured in terms of the percentage increase in viable cells (relative to control) after ER stress. Further details of a suitable assay are set forth in the accompanying Examples section.
This assay is described in Tsaytler et al. (Science 2011). HeLa Cells were cultured in Eagle's Minimum Essential Medium (EMEM) supplemented with Glutamine, Sodium Pyruvate, Non-Essential Amino Acids, Penicillin and Streptomycin containing 10% Foetal Bovine Serum (FBS), at 37° C. in 5% CO2 atmosphere. Cells were plated in 96 well plates at a density of 17,000 cells/mL the day before the treatment. ER stress was elicited by addition of 5 μg/mL tunicamycin (Sigma-Aldrich) together with PPP1R15A inhibitors (0.5-10 μM). Media were changed 6h later with fresh media and the cytoprotection was maintained by the addition of PPP1R15A inhibitors (0.5-10 μM). Cell viability was assessed by measuring the reduction of WST-8 into formazan using Cell Counting Kit-8 (Sigma) according to the supplier's recommendation, 48 h or 72h after tunicamycin treatment. Cytoprotection from ER stress is measured in terms of cytoprotective potency effect compared to the reference compound Guanabenz (Tsaytler et al., Science 2011) after ER stress: • ‘+’ no cytoprotective effect; • ‘+’ lower cytoprotective effect compared to Guanabenz; • ‘++’ similar cytoprotective effect compared to Guanabenz; • ‘+++’ higher cytoprotective effect compared to Guanabenz.
Table 1 summarizes the results of cytoprotective effect of different compounds of the invention, compared to guanabenz, after the stress induced by a 6 hour exposure of tunicamycin.

[2] = tested on: rotenone injured primary mesencephalic rat neurons; assay: In vitro Parkinson's disease model: rotenone injured primary mesencephalic rat neurons; format: cell-based; conditions: rotenone 10 nM, 24 hours; total number of TH positive neurons
Procedure: Rat dopaminergic neurons were cultured as described by Schinelli et al., (1988 J. Neurochem 50 pp1900-07) and Visanji et al., (2008 FASEB J. 22(7) pp2488-97). Briefly, the midbrains obtained from 15-day old rat embryos (Janvier Labs, France) were dissected under a microscope. The embryonic midbrains were removed and placed in ice-cold medium of Leibovitz (L15, Pan Biotech, Batch: 9310614) containing 2% of Penicillin-Streptomycin (PS, Pan Biotech, Batch: 1451013) and 1% of bovine serum albumin (BSA, Pan Biotech, Batch: h140603). The ventral portion of the mesencephalic flexure, a region of the developing brain rich in dopaminergic neurons, was used for the cell preparations.
The midbrains were dissociated by trypsinisation for 20 min at 37° C. (Trypsin 0.05% EDTA 0.02%, PanBiotech, Batch: 5890314). The reaction was stopped by the addition of Dulbecco's modified Eagle's medium (DMEM, PanBiotech, Batch: 1300714) containing DNAase I grade II (0.1 mg/ml, PanBiotech, Batch: H140508) and 10% of foetal calf serum (FCS, Gibco, Batch: 41Q7218K). Cells were then mechanically dissociated by 3 passages through a 10 ml pipette. Cells were then centrifuged at 180×g for 10 min at +4° C. on a layer of BSA (3.5%) in L15 medium. The supernatant was discarded and the cell pellets were re-suspended in a defined culture medium consisting of Neurobasal (Invitrogen, Batch: 1636133) supplemented with B27 (2%, Invitrogen, Batch: 1660670), L-glutamine (2 mM, PanBiotech, Batch: 8150713) and 2% of PS solution and 10 ng/ml of Brain-derived neurotrophic factor (BDNF, PanBiotech, Batch: H140108) and 1 ng/ml of Glial-Derived Neurotrophic Factor (GDNF, Pan Biotech, Batch: H130917). Viable cells were counted in a Neubauer cytometer using the trypan blue exclusion test. The cells were seeded at a density of 40 000 cells/well in 96 well-plates pre-coated with poly-L-lysine (Corning Biocoat, Batch: 6614022) and maintained in a humidified incubator at 37° C. in 5% CO2/95% air atmosphere. Half of the medium was changed every 2 days with fresh medium.
On day 6 of culture, the medium was removed and fresh medium was added, without or with rotenone (Sigma, Batch: 021M2227V) at 10 nM diluted in control medium, 3 wells per condition were assessed. […]
The immunolabeled cultures were automatically examined with ImageXpress (Molecular device USA). For each condition, 20 automatically fields per well (representing ˜80% of the total surface of the well) from 3 wells were analyzed. The total number of TH neurons was automatically analyzed using Custom module editor (Molecular Devices, USA). […] All values were expressed as mean +/−SEM (s.e. mean) of the 1 culture (n=3 wells per condition per culture).

[3] = tested on: mouse embryonic fibroblasts lipofected with poly I:C; assay: In vitro inflammation/infection model: poly I:C induced mouse embryonic fibroblasts; format: cell-based; conditions: 25 μM, 6h, IFN-beta ELISA in culture supernatants
Procedure: Mouse Embryonic Fibroblasts (MEFs) were lipofected with poly I:C and treated with […] compounds of the invention (25 μM) for 6h. After 6h of culture, elF2alpha-phosphorylation (elF2a-P) and PPP1R15A (GADD34) expression was monitored by western blotting, while type-1 Interferon(IFN)-beta production was quantified in culture supernatants by ELISA. Control (nt) and poly I:C/DMSO are respectively negative and positive controls. Poly I:C (polyinosinic:polycytidylic acid or polyinosinic-polycytidylic acid sodium salt) is an immunostimulant used to simulate viral infections. Poly I:C which is structurally similar to double-stranded RNA, is known to interact with toll-like receptor 3 which is expressed in the intracellular compartments of B-cells and dendritic cells. Guanabenz (25 μM) was used as reference inhibitory compound.
MEFs were cultured in DMEM, 10% FCS (HyClone, Perbio), 100 units/ml penicillin, 100 μg/ml streptomycin, 2 mM glutamine, 1× MEM non-essential amino acids and 50 μM 2-mercaptoethanol. MEFS were treated for the indicated time with 10 μg/ml poly I:C (InvivoGen) in combination with lipofectamine 2000 (Invitrogen).
Cells were lysed in 1% Triton X-100, 50 mM Hepes, 10 mM NaCl, 2.5 mM MgCl2, 2 mM EDTA, 10% glycerol, supplemented with Complete Mini Protease Inhibitor Cocktail Tablets (Roche). Protein quantification was performed using the BCA Protein Assay (Pierce). 25-50 μg of Triton X-100-soluble material was loaded on 2%-12% gradient or 8% SDS-PAGE before immunoblotting and chemi-luminescence detection (SuperSignal West Pico Chemi-luminescent Substrate, Pierce). Rabbit polyclonal antibodies recognizing GADD34 (C-19) were from Santa Cruz Biotechnology and anti-elF2alpha[pS^52] were from Invitrogen.
IFN-beta quantification in culture supernatant was performed using the Mouse Interferon Beta ELISA kit (PBL Interferon Source) according to manufacturer instructions.
Normal response of MEFs to poly I:C is characterized by PPP1R15A expression, increase in elF2alpha-P (variable in time and related to the levels PPP1R15A expression) mediated by PKR activation and type-I IFN production (range 500 to 700 pg/ml). Knock out PPP1R15A MEFs are unable to produce this cytokine in response to poly I:C.
The potency of compounds of the invention to inhibit PPP1R15A was evaluated by measuring the increase of elF2alpha phosphorylation, the decrease of PPP1R15A expression due to its own pharmacological inhibition resulting in general protein synthesis inhibition and type-I IFN production.

human alpha2A receptor = target: T1, human alpha2A receptor (Homo sapiens, UniProt P08913); assay: Functional GPCR assay for adrenergic α2A receptor (CellKey detection method); format: cell-based; conditions: agonist activity, CHO cells expressing human alpha2A receptor, impedance (CellKey); read-out: Functional adrenergic alpha2 receptor assay EC50
T1 construct: CHO cells endogenously expressing human alpha2A receptor; endogenous in cells; host or cells: CHO cells
T1 sequence (P08913 1-465): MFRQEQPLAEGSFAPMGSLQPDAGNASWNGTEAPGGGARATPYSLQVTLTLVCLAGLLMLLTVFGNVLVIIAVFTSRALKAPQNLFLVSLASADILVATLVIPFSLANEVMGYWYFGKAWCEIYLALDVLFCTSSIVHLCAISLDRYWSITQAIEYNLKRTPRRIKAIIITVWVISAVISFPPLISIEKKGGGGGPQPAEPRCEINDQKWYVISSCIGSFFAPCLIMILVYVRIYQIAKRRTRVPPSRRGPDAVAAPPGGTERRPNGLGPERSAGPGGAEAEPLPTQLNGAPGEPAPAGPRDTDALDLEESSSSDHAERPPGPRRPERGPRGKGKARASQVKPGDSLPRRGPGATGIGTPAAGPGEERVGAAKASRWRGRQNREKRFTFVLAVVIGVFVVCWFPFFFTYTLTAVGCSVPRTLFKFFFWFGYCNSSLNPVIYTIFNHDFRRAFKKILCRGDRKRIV
Procedure: The agonist activity of compounds was evaluated on CHO cells […] expressing human alpha2A receptor and was determined by measuring their effects on impedance modulation using the CellKey detection method. Cells were seeded onto 96-well plate at density of 6×10^4 cells/well in HBSS buffer (Invitrogen)+20 mM HEPES (Invitrogen) with 0.1% BSA and are allowed to equilibrate for 60 min at 28° C. before the start of the experiment. Plates were placed onto the system and measurements were made at a temperature of 28° C. Solutions were added simultaneously to all 96 wells using an integrated fluidics system: HBSS (basal control), reference agonist at 100 nM (stimulated control), reference agonist (EC50 determination) or the test compounds. Impedance measurements are monitored for 10 minutes after ligand addition. The standard reference agonist is epinephrine, which is tested in each experiment at several concentrations to generate a concentration-response curve from which its EC50 value is calculated.
Dose-response data from test compounds were analysed with Hill software using non-linear regression analysis of the concentration-response curves generated with mean replicate values using Hill equation curve fitting.

HeLa cells [4] = conditions: tunicamycin; Tsaytler et al., Science 2011; cited from earlier work

| SMILES | Cytoprotection from ER stress compared to guanabenz (HeLa cells [1]) | EC50 (human alpha2A receptor) [µM] | other results |
| --- | --- | --- | --- |
| CS(=O)(=O)CCCO/N=C(\N)N/N=C/c1ccccc1Cl [Compound 4, 2-(2-chlorobenzylidene)-N′-[3-(methylsulfonyl)propoxy]hydrazinecarboximidamide] | ++ |  |  |
| C=CCO/N=C(\N)N/N=C/c1ccccc1Cl [Compound 5, 2-(2-chlorobenzylidene)-N′-(prop-2-en-1-yloxy)hydrazinecarboximidamide] | + |  | protection of rotenone injured primary mesencephalic rat neurons (FIG. 3) [2]: dose dependent protection |
| N/C(=N\OCCO)N/N=C/c1ccccc1Cl [Compound 6, 2-(2-chlorobenzylidene)-N′-(2-hydroxyethoxy)hydrazinecarboximidamide] | ++ | > 33.3 | prevention of type-I IFN production (FIG. 9) [3]: prevent type-I IFN production |
| CCOCCONC(=N)N/N=C/c1ccccc1Cl [Compound 13, 2-(2-chlorobenzylidene)-N-(2-ethoxyethoxy)hydrazinecarboximidamide] | ++ | > 33.3 |  |
| CC(C)=CCONC(=N)N/N=C/c1ccccc1Cl [Compound 14, 2-(2-chlorobenzylidene)-N′-[(3-methylbut-2-en-1-yl)oxy]hydrazinecarboximidamide] | ++ |  |  |
| CCSCCONC(=N)N/N=C/c1ccccc1Cl [Compound 15, 2-(2-chlorobenzylidene)-N-[2-(ethylsulfanyl)ethoxy]hydrazinecarboximidamide] | ++ | > 33.3 |  |
| CCCO/N=C(\N)N/N=C/c1c(F)cccc1Cl [Compound 19, 2-(2-chloro-6-fluorobenzylidene)-N′-propoxyhydrazinecarboximidamide] | +++ |  |  |
| CCCO/N=C(\N)N/N=C/c1c(Cl)cccc1Cl [Compound 21, 2-(2,6-dichlorobenzylidene)-N-propoxyhydrazinecarboximidamide] | ++ |  |  |
| CCCO/N=C(\N)N/N=C/c1ccncc1Cl [Compound 23, 2-[(3-chloropyridin-4-yl)methylidene]-N-propoxyhydrazinecarboximidamide] | ++ |  |  |
| Clc1cccc(Cl)c1N=C1NCCN1 [clonidine] |  |  | protection of cells from cytotoxic ER stress (HeLa cells [4]): Neither the α2-adrenergic receptor agonist clonidine, nor the α2-adrenergic receptor antagonist efaroxan protected cells |
